What is called inhibition is the relative decrease from the control value, in per cent.

Structures are written as SMILES.

In this assay the target is T1, human SCD1 enzyme (Homo sapiens, UniProt O00767).
T1 sequence (O00767 1-359): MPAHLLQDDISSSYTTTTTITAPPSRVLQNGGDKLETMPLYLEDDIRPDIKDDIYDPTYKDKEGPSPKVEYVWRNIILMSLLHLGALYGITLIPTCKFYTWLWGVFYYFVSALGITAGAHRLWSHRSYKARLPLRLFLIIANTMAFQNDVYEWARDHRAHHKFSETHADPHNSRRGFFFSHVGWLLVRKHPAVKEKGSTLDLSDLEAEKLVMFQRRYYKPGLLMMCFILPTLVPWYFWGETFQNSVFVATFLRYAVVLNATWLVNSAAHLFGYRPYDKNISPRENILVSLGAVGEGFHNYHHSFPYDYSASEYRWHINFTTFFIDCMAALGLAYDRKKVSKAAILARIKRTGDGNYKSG
Put plainly: Tritiated water release assay (conversion of radiolabeled stearoyl-CoA to oleoyl-CoA). The format is biochemical. The settings on record: 10 μM concentration of test compounds; microsomal SCD1, 3H stearoyl CoA, 37° C. 30 minutes; percent of control reaction; read-out: % Inhibition. On the procedure: The in-vitro activity of the compounds of the present invention against stearoyl coenzyme desaturase was determined by following conversion of radiolabeled-stearoyl-CoA to oleoyl-CoA using human SCD1 enzyme using a previously published assay procedure with some modifications (Barbara R Talamo and Konrad Bloch, Analytical Biochemistry, 1969, 29, 300-304). This assay protocol is only illustrative and is not meant to limit to the scope of the present invention.
In this assay the microsomal SCD1 enzyme desaturates its substrate, Stearoyl CoA (purchased from American Radiochemicals Ltd.) which is tritiated at C9 and C10 positions. Test compounds were dissolved in dimethylsulfoxide and tested at 10 μM final concentration. Before substrate addition, the test compound or standard reference compound (conjugated linoleic acid at 100 μM final concentration) were pre-incubated in reaction buffer with the enzyme for 10 minutes at 30° C. with shaking. Reaction buffer was prepared as described in literature (Obukowicz et al. JPET, 1998, 287, 157-166) except that the MgCl2, ATP (purchased from Sigma) and CoA (purchased from Sigma) concentrations were changed to 4.9 mM, 7.2 mM and 0.54 mM respectively. The desaturation reaction was initiated by addition of 0.5 μCi of ^3H stearoyl CoA and incubated at 37° C. for 30 minutes with shaking. A control reaction was set without any test compound/reference inhibitor to capture maximum enzymatic activity in the assay. Inhibition of enzyme activity was calculated as a percent of this control reaction giving maximum catalysis and the results are given in Table 5.
Table 5: Tritiated water release assay at 10 μM substrate concentration *Conjugated Linoleic acid was used as a reference standard
Take `CC(=O)Nc1cccc(C#Cc2ccc(N3CCN(C(=O)c4ccccc4C(F)(F)F)CC3)nc2)c1` [Example 36, N1-[3-(2-{6-[4-(2-Trifluoromethylbenzoyl)piperazino]-3-pyridyl}-1-ethynyl)phenyl]acetamide]: the inhibition at 10 µM stood at 23%. With `O=C(c1cc(Cl)ccc1Cl)N1CCN(c2ccc(C#Cc3ccccc3)cn2)CC1` [Example 21, 2,5-Dichlorophenyl-4-[5-(2-phenyl-1-ethynyl)-2-pyridyl]piperazinomethanone] the figure was 40%; with `O=C(c1cc(Cl)ccc1Cl)N1CCN(c2ccc(C#Cc3cnccn3)cn2)CC1` [Example 46], 29%; with `Oc1cccc(C#Cc2ccc(N3CCN(CC4CCCCC4)CC3)nn2)c1` [Example 57, 3-({6-[4-(Cyclohexylmethyl)piperazin-1-yl]pyridazin-3-yl}ethynyl)phenol], 96%. As to `CCC(O)C#Cc1ccc(N2CCN(C(=O)c3ccccc3C(F)(F)F)CC2)nc1` (centres unmarked) [Example 6, 4-[5-(3-Hydroxy-1-pentynyl)-2-pyridyl]piperazino-2-trifluoromethylphenylmethanone], the inhibition at 10 µM worked out at 24%. On to `CC(C)(C)C#Cc1ccc(N2CCN(C(=O)c3cc(Cl)ccc3Cl)CC2)nc1` [Example 19, 2,5-Dichlorophenyl-4-[5-(3,3-dimethyl-1-butynyl)-2-pyridyl]piperazinomethanone], for which the inhibition at 10 µM was 14%. With `[O-][n+]1cccc(C#Cc2ccc(N3CCC(Oc4ccccc4F)CC3)nn2)c1` [Example 95] the figure was 24%.

Take `COc1ccc(C#Cc2ccc(N3CCN(C(=O)c4ccccc4C(F)(F)F)CC3)nc2)cc1` [Example 30, 4-{5-[2-(4-Methoxyphenyl)-1-ethynyl]-2-pyridyl}piperazino-2-trifluoromethylphenyl methanone]: the inhibition at 10 µM turned out to be 26%. Regarding `CCCC#Cc1ccc(N2CCN(C(=O)c3ccccc3C(F)(F)F)CC2)nc1` [Example 17, 4-[5-(1-Pentynyl)-2-pyridyl]piperazino-2-trifluoromethylphenylmethanone], the inhibition at 10 µM is 40%.

For the compound `CC(=O)Oc1ccc(C#Cc2ccc(N3CCC(Oc4ccccc4F)CC3)nn2)cc1` [Example 75, 4-[{6-[4-(2-Fluorophenoxy)piperidin-1-yl]pyridazin-3-yl}ethynyl]phenyl acetate], the inhibition at 10 µM was 88%.

`Oc1ccc(C#Cc2ccc(N3CCC(Oc4ccc(Br)cc4F)CC3)nn2)cc1` [Example 81]: the inhibition at 10 µM is 95%. With `O=C(c1ccccc1C(F)(F)F)N1CCN(c2ccc(C#Cc3cccc(CO)c3)cn2)CC1` [Example 33, 4-{5-[2-(3-Hydroxymethylphenyl)-1-ethynyl]-2-pyridyl}piperazino-2-trifluoromethyl-phenylmethanone] the figure was 20%.

On to `CC(=O)Oc1ccc(C#Cc2ccc(N3CC(Oc4ccccc4F)C3)nn2)cc1` [Example 66], for which the inhibition at 10 µM was 94%. In the case of `O=C(c1ccccc1C(F)(F)F)N1CCN(c2ccc(C#Cc3ccc4[nH]ccc4c3)cn2)CC1` [Example 49, 4-{5-[2-(1H-5-Indolyl)-1-ethynyl]-2-pyridyl}piperazino-2-trifluoromethylphenyl-methanone], the inhibition at 10 µM was determined as 91%. In the case of `N#Cc1ccc(OCC#Cc2ccc(N3CCN(C(=O)c4ccccc4C(F)(F)F)CC3)nc2)nc1` [Example 12], the inhibition at 10 µM stood at 11%.

Regarding `COc1cccc(C#Cc2ccc(N3CCN(C(=O)c4cc(Cl)ccc4Cl)CC3)nc2)c1` [Example 31, 2,5-Dichlorophenyl-4-{5-[2-(3-methoxyphenyl)-1-ethynyl]-2-pyridyl}piperazino-methanone], the inhibition at 10 µM is 21%. In the case of `Oc1ccc(C#Cc2ccc(N3CCC(O)(Cc4ccccc4)CC3)nn2)cc1` [Example 62, 4-Benzyl-1-{6-[(4-hydroxyphenyl)ethynyl]pyridazin-3-yl}piperidin-4-ol], the inhibition at 10 µM stood at 99%. For the compound `CC(=O)Oc1ccc(C#Cc2ccc(N3CCC(O)(Cc4cc(Cl)ccc4Cl)CC3)nn2)cc1` [Example 64], the inhibition at 10 µM was determined as 87%. Consider `CC(C)(O)C#Cc1cnc(N2CCN(C(=O)c3ccccc3C(F)(F)F)CC2)nc1` [Example 4, 4-[5-(3-Hydroxy-3-methyl-1-butynyl)-2-pyrimidinyl]piperazino-2-trifluoromethylphenyl-methanone], for which the inhibition at 10 µM amounted to 22%. For `Fc1ccccc1OC1CCN(c2ccc(C#Cc3cccnc3)cn2)CC1` [Example 73, 4-(2-Fluorophenoxy)-1-{5-[2-(3-pyridyl)-1-ethynyl]-2-pyridyl}piperidine], the inhibition at 10 µM was determined as 37%. With `O=C(c1ccccc1C(F)(F)F)N1CCN(c2ccc(C#CCOc3ccc(O)cc3)cn2)CC1` [Example 13] the figure was 92%; with `CC(=O)Oc1ccc(C#Cc2ccc(N3CCN(C(=O)c4ccccc4C(F)(F)F)CC3)nc2)cc1` [Example 22], 84%; with `Cc1cccc(C#Cc2cnc(N3CCC(Oc4ccccc4F)CC3)nc2)c1` [Example 97], 36%.

On to `O=C(c1ccccc1C(F)(F)F)N1CCN(c2ccc(C#Cc3ccccc3)cn2)CC1` [Example 20, 4-[5-(2-Phenyl-1-ethynyl)-2-pyridyl]piperazino-2-trifluoromethylphenylmethanone], for which the inhibition at 10 µM was determined as 38%.

In the case of `CC(=O)Oc1ccc(C#Cc2ccc(NCCOc3ccccc3F)nn2)cc1` [Example 99], the inhibition at 10 µM was found to be 55%. For `O=C(O)c1cc(C#Cc2ccc(N3CCN(C(=O)c4ccccc4C(F)(F)F)CC3)nc2)ccc1O` [Example 35, 2-Hydroxy-5-(2-{6-[4-(2-trifluoromethylbenzoyl)piperazino]-3-pyridyl}-1-ethynyl)-benzoic acid], the inhibition at 10 µM came to 36%.

`Fc1ccc(OCC#Cc2ccc(N3CCN(c4ccc(C(F)(F)F)cn4)CC3)nc2)cc1` [Example 14, 1-{5-[3-(4-Fluorophenoxy)prop-1-yn-1-yl]-2-pyridyl}-4-(5-trifluoromethylpyridin-2-yl)piperazine]: the inhibition at 10 µM is 35%. On to `CC(=O)Oc1cccc(C#Cc2ccc(N3CCC(Oc4ccccc4C(F)(F)F)CC3)nn2)c1` [Example 90, 3-(2-{6-[4-(2-Trifluoromethylphenoxy)piperidino]-3-pyridazinyl}-1-ethynyl)phenyl acetate], for which the inhibition at 10 µM was found to be 95%.

Take `Oc1ccc(C#Cc2ccc(N3CCC(Oc4ccccc4F)C3)nn2)cc1` (stereo in doubt) [Example 71, 4-[{6-[(3S)-3-(2-Fluorophenoxy)azolan-1-yl]pyridazin-3-yl}ethynyl]phenol]: the inhibition at 10 µM worked out at 95%.

(Values after patent US20080182851A1, “ACETYLENE DERIVATIVES AS STEAROYL COA DESATURASE INHIBITORS” (Glenmark Pharmaceuticals S.A., priority 2006, published 2008).)
